This passage reports IC50 results from BindingDB's records for doi:10.1016/s0960-894x(00)00023-8 (Dupont Pharmaceuticals, 2000).

Structures can show the parent of a compound that is named as a salt.

One assay can be described thus: Inhibition of platelet aggregation in human platelet rich plasma (hPRP).
`N=C(N)c1ccc(C2=NOC(CC(=O)N3CCC(=O)C(C(=O)O)C3)C2)cc1` (configuration not stated) [1-{2-[3-(4-Carbamimidoyl-phenyl)-4,5-dihydro-isoxazol-5-yl]-acetyl}-4-oxo-piperidine-3-carboxylic acid; TFA] gave an IC50 of 6400 nM.
The same measure, in the same setting: the result for `N=C(N)c1ccc(C2=NOC(CC(=O)N3CCCC(C(=O)O)C3)C2)cc1` (configuration not stated) [1-{2-[3-(4-Carbamimidoyl-phenyl)-4,5-dihydro-isoxazol-5-yl]-acetyl}-piperidine-3-carboxylic acid; TFA] reads 5200 nM; that for `N=C(N)c1ccc(C2=NOC(CC(=O)N3CCC(C(=O)O)CC3)C2)cc1` (configuration not stated) [1-{2-[3-(4-Carbamimidoyl-phenyl)-4,5-dihydro-isoxazol-5-yl]-acetyl}-piperidine-4-carboxylic acid; TFA], 2500 nM.
Take `N=C(N)c1ccc(C2=NOC(CC(=O)N3CCCCCC3CC(=O)O)C2)cc1` (configuration not stated) [(1-{2-[3-(4-Carbamimidoyl-phenyl)-4,5-dihydro-isoxazol-5-yl]-acetyl}-azepan-2-yl)-acetic acid; TFA]: the IC50 is 3700 nM.
Molecule `N=C(N)c1ccc(C2=NOC(CC(=O)N3CCCCC3CC(=O)O)C2)cc1` (configuration not stated) [(1-{2-[3-(4-Carbamimidoyl-phenyl)-4,5-dihydro-isoxazol-5-yl]-acetyl}-piperidin-2-yl)-acetic acid; TFA] yielded an IC50 of 280 nM.
`N=C(N)c1ccc(C2=NOC(CC(=O)N3CCCC3CC(=O)O)C2)cc1` (configuration not stated) [(1-{2-[3-(4-Carbamimidoyl-phenyl)-4,5-dihydro-isoxazol-5-yl]-acetyl}-pyrrolidin-2-yl)-acetic acid; TFA]: the 50% inhibitory concentration (IC50) was determined as 1100 nM.

Assay in a further assay: as above
This is another data set of the same source.
`N=C(N)c1ccc(C2=NOC(CC(=O)NCCC(=O)O)C2)cc1` (configuration not stated) came in with an IC50 of 60 nM.
